The results in this text go back to US20210078972A1, “QUINOLINE OR QUINAZOLINE COMPOUND AND APPLICATION THEREOF” (HAIHE BIOPHARMA CO., LTD., priority 2018, published 2021).

Common to all, as to assay type: biochemical
In experiment [1] the target is T1, AXL kinase domain recombinant protein (Homo sapiens, UniProt P30530).
T1 construct: the AXL kinase domain recombinant protein (eurofins, 14-512); purchased eurofins 14-512
T1 sequence (P30530 536-807 limits assumed): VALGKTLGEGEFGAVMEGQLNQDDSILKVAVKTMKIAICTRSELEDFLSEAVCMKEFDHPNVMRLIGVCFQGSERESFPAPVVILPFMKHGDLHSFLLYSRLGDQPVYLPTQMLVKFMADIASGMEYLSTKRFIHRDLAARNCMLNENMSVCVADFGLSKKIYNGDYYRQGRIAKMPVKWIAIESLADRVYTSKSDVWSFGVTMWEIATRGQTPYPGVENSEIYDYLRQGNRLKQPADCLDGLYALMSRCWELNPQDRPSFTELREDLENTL
Kind of experiment: AXL kinase inhibition, ELISA. To be noted: ATP 5 μM. As for the experimental part:
Detection of the activity of kinase: Enzyme-linked immunosorbent assay (ELISA) technology was used to detect the inhibitory activities of the compounds against the kinase. […] After the liquid in the well was discarded, the plate was washed three times with T-PBS (PBS containing 0.1% Tween-20), 200 μL T-PBS per well, 5 minutes for each time. The enzyme label plate was dried in an oven at 37° C. for 1-2 hours. To each well was added 50 μL of ATP solution diluted with reaction buffer (50 mM HEPES, pH 7.4, 50 mM MgCl2, 0.5 mM MnCl2, 0.2 mM Na3VO4, 1 mM DTT) with a final concentration of 5 μM. […] Two wells with no enzyme for control are required for each experiment. The plate was incubated on a shaker (100 rpm) at 37° C. and reacted for 1 hour. The plate was washed three times with T-PBS. 100 μ/well of primary antibody PY99 dilution was added and the plate was reacted in a shaker at 37° C. for 0.5 hour. The plate was washed three times with T-PBS. 100 μ/well of secondary antibody horseradish peroxidase-labeled goat anti-mouse IgG dilution was added and the plate was reacted in a shaker at 37° C. for 0.5 hour. The plate was washed three times with T-PBS. 2 mg/ml of OPD color solution was added with 100 μ/well (diluted with 0.1 M citric acid-sodium citrate buffer (pH=5.4) containing 0.03% H2O2), and the plate was reacted at 25° C. in the dark for 1-10 minutes. (Ultrasound is required for the dissolution of OPD, and the color solution needs to be prepared for immediate use). 50 μ/well of 2 M H2SO4 was added to stop the reaction, and the wavelength-adjustable enzyme-labeling instrument SPECTRA MAX 190 was used to read the data at a wavelength of 490 nm.
The inhibition rate of the sample was obtained by the following formula: […]
The IC50 values were obtained by regression with the four-parameter method using the software attached to the enzyme-labeling instrument.
(In general: ELISA stands for enzyme-linked immunosorbent assay.)

Experiment [2] has as its target T2, Flt3 kinase (Homo sapiens, UniProt P36888).
T2 construct: purchased life PV6253
T2 sequence (P36888 27-993): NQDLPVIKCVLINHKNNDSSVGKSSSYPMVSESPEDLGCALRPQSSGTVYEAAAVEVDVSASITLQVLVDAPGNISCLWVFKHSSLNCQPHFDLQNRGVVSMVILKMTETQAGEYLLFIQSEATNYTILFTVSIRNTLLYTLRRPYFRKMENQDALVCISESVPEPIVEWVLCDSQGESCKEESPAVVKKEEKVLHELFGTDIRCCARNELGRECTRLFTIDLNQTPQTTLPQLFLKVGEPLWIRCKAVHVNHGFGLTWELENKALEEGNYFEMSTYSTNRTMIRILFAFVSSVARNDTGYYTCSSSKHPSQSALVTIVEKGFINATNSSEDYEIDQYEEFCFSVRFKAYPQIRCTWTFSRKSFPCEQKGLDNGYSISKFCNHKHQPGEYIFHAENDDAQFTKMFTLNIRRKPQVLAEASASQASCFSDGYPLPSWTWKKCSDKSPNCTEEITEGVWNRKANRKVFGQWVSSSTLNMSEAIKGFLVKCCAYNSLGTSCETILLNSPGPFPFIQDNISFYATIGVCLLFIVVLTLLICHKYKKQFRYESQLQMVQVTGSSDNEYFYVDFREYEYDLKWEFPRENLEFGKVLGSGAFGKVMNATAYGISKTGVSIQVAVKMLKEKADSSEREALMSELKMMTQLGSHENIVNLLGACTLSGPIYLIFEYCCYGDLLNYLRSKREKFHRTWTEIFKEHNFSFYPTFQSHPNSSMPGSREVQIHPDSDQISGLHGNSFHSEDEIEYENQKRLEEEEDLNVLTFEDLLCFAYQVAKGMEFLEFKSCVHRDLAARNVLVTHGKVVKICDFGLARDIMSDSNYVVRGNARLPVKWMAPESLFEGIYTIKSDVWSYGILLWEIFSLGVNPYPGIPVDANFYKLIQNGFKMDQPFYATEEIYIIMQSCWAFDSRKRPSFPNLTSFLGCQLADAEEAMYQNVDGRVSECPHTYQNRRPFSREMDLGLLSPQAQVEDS
Kind of experiment: Flt3 kinase inhibition, Z'-LYTE FRET. Conditions: ATP 500 μM. An excerpt:
Detection of the activity of kinase: the inhibitory activities of the compounds against Flt3 kinase (life, PV6253) were detected through a second-order reaction by the Z′-LYTE™ technology (detected by fluorescence, enzyme-coupled form, based on the difference in a sensitivity of phosphorylated and non-phosphorylated polypeptides to proteolytic cleavage), based on the principle of fluorescence resonance energy transfer (FRET), using Z′-LYTE™ FRET peptide substrate (Z′-LYTE™ Tyrosine 2 Peptide Substrate, Invitrogen, PV3191).
Enzymatic reaction: To a 384-well plate were added 5 μL of enzyme-substrate system (50 mM HEPES, pH 7.5, 0.01% BRU-35, 10 mM MgC2, 1 mM EGTA), 2.5 μL of a compound (concentration gradient) and 2.5 μL of a mixed solution of ATP (a final concentration of a substrate Z′-LYTE™ Tyrosine 2 Peptide Substrate was 2 μM, and a final concentration of ATP was 500 μM), and then the plate was incubated at 37° C. in the dark for 1 h.
Detecting reaction: 5 μL of Development Solution (1:64 dilution) was added to each well and the plate was incubated at 37° C. in the dark for 1 h, then 5 μL of Stop Reagent was added.
(§1) The data analysis method is as follows:
(§2) Phosphorylation ratio=1−{(emission ratio×F100%−C100%)/[C0%−C100%+emission ratio×(F100%−F0%)]}×100;
(§3) Inhibition rate=100×(1−compound phosphorylation ratio/negative control phosphorylation ratio).
(§4) The IC50 values were calculated by GraphPad Prism software.

Experiment [3] addresses T3, AXL kinase (Homo sapiens, UniProt P30530).
T3 construct: purchased eurofins 14-500
T3 sequence (P30530 473-894 limits assumed): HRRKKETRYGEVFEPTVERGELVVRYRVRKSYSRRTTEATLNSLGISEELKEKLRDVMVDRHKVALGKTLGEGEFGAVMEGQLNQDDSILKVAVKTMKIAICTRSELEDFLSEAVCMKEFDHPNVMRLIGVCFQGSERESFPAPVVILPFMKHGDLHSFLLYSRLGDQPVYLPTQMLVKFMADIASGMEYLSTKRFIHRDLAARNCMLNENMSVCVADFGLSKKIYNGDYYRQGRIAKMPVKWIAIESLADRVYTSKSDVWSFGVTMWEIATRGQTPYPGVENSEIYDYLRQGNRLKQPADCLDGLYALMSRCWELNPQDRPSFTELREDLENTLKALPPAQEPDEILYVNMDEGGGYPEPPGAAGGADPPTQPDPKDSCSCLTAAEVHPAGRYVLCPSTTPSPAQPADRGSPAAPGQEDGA
Kind of experiment: AXL kinase inhibition, Z'-LYTE FRET. To be noted: ATP 50 μM.
From the text: Detection of the activity of kinase: the inhibitory activities of the compounds against AXL kinase (eurofins, 14-500) were detected through a second-order reaction by the Z′-LYTE™ technology (detected by fluorescence, enzyme-coupled form, based on the difference in a sensitivity of phosphorylated and non-phosphorylated polypeptides to proteolytic cleavage), based on the principle of fluorescence resonance energy transfer (FRET), using Z′-LYTE™ FRET peptide substrate (Z′-LYTE™ Tyrosine 6 Peptide Substrate, Invitrogen, PV4122).
Enzymatic reaction: To a 384-well plate was added 5 μL of enzyme-substrate system (50 mM HEPES, pH 6.5, 0.01% BRU-35, 10 mM MgC2, 1 mM EGTA, 0.02% NaNA), and 5 nL of a compound (concentration gradient) was transferred thereto using an echo520 ultramicro-liquid pipetting system. After the plate was shaken at room temperature for 10-20 min, 25 nL of ATP (a final concentration of 50 μM) was transferred thereto using the echo520 ultramicro-liquid pipetting system. After shaking and well mixing, the mixture was centrifuged and reacted at 30° C. in the dark for 1.5 h.
as §1, §2, §3, §4

Regarding `COc1cc2c(Oc3ccc(NC(=O)c4c(C)n(C)c5ccc(OC(F)(F)F)cc5c4=O)cc3F)ccnc2cc1OCCCN1CCOCC1` [CCB-310, N-(3-fluoro-4-((6-methoxy-7-(3-morpholinopropoxy)quinolin-4-yl)oxy)phenyl)-1,2-dimethyl-4-oxo-6-(trifluoromethoxy)-1,4-dihydroquinoline-3-carboxamide], the results for the IC50 in experiment [1] and in experiment [2] were 1.8 nM and 9.5 nM, respectively.

For the compound `COCCOc1cc2ncnc(Oc3ccc(NC(=O)c4c(C)n(C)c5ccc(OC(F)(F)F)cc5c4=O)cc3F)c2cc1OCCOC` [TL-197, N-(4-((6,7-bis(2-methoxyethoxy)quinazolin-4-yl)oxy)-3-fluorophenyl)-1,2-dimethyl-4-oxo-6-(trifluoromethoxy)-1,4-dihydroquinoline-3-carboxamide], the IC50 in experiment [1] is 4.2 nM; in experiment [2] it was 4.7 nM.

For the compound `COc1cc2ncnc(Oc3ccc(NC(=O)c4c(C)n(C)c5ccc(OC(F)(F)F)cc5c4=O)cc3F)c2cc1OC` [TL-198, N-(4-((6,7-dimethoxyquinazolin-4-yl)oxy)-3-fluorophenyl)-1,2-dimethyl-4-oxo-6-(trifluoromethoxy)-1,4-dihydroquinoline-3-carboxamide], the IC50 was 2.1 nM in experiment [1] and 2.3 nM in experiment [2].

`COCCCOc1cc2c(Oc3ccc(NC(=O)c4c(C)n(C)c5ccc(OC(F)(F)F)cc5c4=O)cc3F)ncnc2cc1OC` [TL-199, N-(3-fluoro-4-((7-methoxy-6-(3-methoxypropoxy)quinazolin-4-yl)oxy)phenyl)-1,2-dimethyl-4-oxo-6-(trifluoromethoxy)-1,4-dihydroquinoline-3-carboxamide]: the IC50 in experiment [1] worked out at 1.8 nM; in experiment [2], 25.8 nM.

Consider `COCCCCOc1cc2ncnc(Oc3ccc(NC(=O)c4c(C)n(C)c5ccc(OC(F)(F)F)cc5c4=O)cc3F)c2cc1OC` [TL-204, N-(3-fluoro-4-((6-methoxy-7-(4-methoxybutoxy)quinazolin-4-yl)oxy)phenyl)-1,2-dimethyl-4-oxo-6-(trifluoromethoxy)-1,4-dihydroquinoline-3-carboxamide], for which the IC50 amounted to 1.6 nM in experiment [1] and 11.2 nM in experiment [2].

For `COc1cc2c(Oc3ccc(NC(=O)c4c(C)n(C)c5ccc(OC(F)(F)F)cc5c4=O)cc3F)ncnc2cc1OCCN1CCOCC1` [TL-209, N-(3-fluoro-4-((6-methoxy-7-(2-morpholinoethoxy)quinazolin-4-yl)oxy)phenyl)-1,2-dimethyl-4-ox o-6-(trifluoromethoxy)-1,4-dihydroquinoline-3-carboxamide], the figures for the IC50 in experiment [1] and in experiment [2] were 2 nM and 9.2 nM, respectively.

Consider `COc1cc2c(Oc3ccc(NC(=O)c4c(C)n(C)c5ccc(OC(F)(F)F)cc5c4=O)cc3F)ncnc2cc1OCCCN1CCCC1` [TL-212, N-(3-fluoro-4-((6-methoxy-7-(3-(pyrrolidin-1-yl)propoxy)quinazolin-4-yl)oxy)phenyl)-1,2-dimethy 1-4-oxo-6-(trifluoromethoxy)-1,4-dihydroquinoline-3-carboxamide], for which the results for the IC50 in experiment [1] and in experiment [2] were 1.5 nM and 5.2 nM, respectively.

As for `COc1cc2c(Oc3ccc(NC(=O)c4c(C)n(C)c5ccc(OC(F)(F)F)cc5c4=O)cc3F)ncnc2cc1OCCN1CCCCC1` [TL-213, N-(3-fluoro-4-((6-methoxy-7-(2-(piperidin-1-yl)ethoxy)quinazolin-4-yl)oxy)phenyl)-1,2-dimethyl-4-oxo-6-(trifluoromethoxy)-1,4-dihydroquinoline-3-carboxamide], the IC50 in experiment [1] was found to be 2.2 nM; in experiment [2] it was 6.4 nM.

In experiment [3], `COc1cc2c(Oc3ccc(NC(=O)c4c(C)n(C)c5ccc(OC(F)(F)F)cc5c4=O)cc3F)ncnc2cc1OCCCN1CCCCC1` [TL-216, N-(3-fluoro-4-((6-methoxy-7-(3-(piperidin-1-yl)propoxy)quinazolin-4-yl)oxy)phenyl)-1,2-dimethyl-4-oxo-6-(trifluoromethoxy)-1,4-dihydroquinoline-3-carboxamide] gave an IC50 of 1.5 nM.

Turning to `COCCCOc1cc2ncnc(Oc3ccc(NC(=O)c4c(C)n(C)c5ccc(OC(F)(F)F)cc5c4=O)cc3F)c2cc1OC` [TL-226, N-(3-fluoro-4-((6-methoxy-7-(3-methoxypropoxy)quinazolin-4-yl)oxy)phenyl)-1,2-dimethyl-4-oxo-6-(trifluoromethoxy)-1,4-dihydroquinoline-3-carboxamide], in experiment [3], it took 4.7 nM to reach half-maximal inhibition (IC50).

One may read the IC50 as the concentration that inhibits the measured activity by half.
